Reference: the supplement of paper PMC10307832

Experiments:
Experiment in all cases: relative viability (nuclei count vs DMSO), 5 days (fraction); higher = more cells survive
Quizartinib + Phenformin = compound: CC(C)(C)c1cc(NC(=O)Nc2ccc(-c3cn4c(n3)sc3cc(OCCN5CCOCC5)ccc34)cc2)no1 [Quizartinib] + N=C(N)NC(=N)NCCc1ccccc1 [Phenformin] (partner 250 µM)
Procedure, shortened: (§1)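 Lung cancer cell lines, seeded in 1536-well plates, were treated the following day by pin tool with a single drug or with five library-drug doses (not always all listed) in √10 steps on top of a fixed anchor-drug dose. Cells were fixed and nuclei stained in one step after 5 days, and nuclei were counted. Relative viability is the nuclei count for treated wells divided by that for vehicle wells, reported as medians of duplicate plates.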

YM155 + Luminespib = compound: COCC[n+]1c2c(n(Cc3cnccn3)c1C)C(=O)c1ccccc1C2=O [YM155] + CCNC(=O)c1noc(-c2cc(C(C)C)c(O)cc2O)c1-c1ccc(CN2CCOCC2)cc1 [Luminespib] (partner 0.01 µM)
Procedure, shortened: as §1

Quizartinib + OSI-027 = compound: CC(C)(C)c1cc(NC(=O)Nc2ccc(-c3cn4c(n3)sc3cc(OCCN5CCOCC5)ccc34)cc2)no1 [Quizartinib] + COc1cccc2cc(-c3nc([C@H]4CC[C@H](C(=O)O)CC4)n4ncnc(N)c34)[nH]c12 [OSI-027] (partner 0.5 µM)
Procedure, shortened: as §1

Quizartinib + Linsitinib = compound: CC(C)(C)c1cc(NC(=O)Nc2ccc(-c3cn4c(n3)sc3cc(OCCN5CCOCC5)ccc34)cc2)no1 [Quizartinib] + C[C@]1(O)C[C@@H](c2nc(-c3ccc4ccc(-c5ccccc5)nc4c3)c3c(N)nccn32)C1 [Linsitinib] (partner 1 µM)
Procedure, shortened: as §1

Cell Line	relative viability (Quizartinib + Phenformin; first compound 0.001 µM)	relative viability (Quizartinib + Phenformin; first compound 0.003162 µM)	relative viability (Quizartinib + Phenformin; first compound 0.01 µM)	relative viability (Quizartinib + Phenformin; first compound 0.03162 µM)	relative viability (Quizartinib + Phenformin; first compound 0.1 µM)	relative viability (YM155 + Luminespib; first compound 0.002 µM)	relative viability (YM155 + Luminespib; first compound 0.006325 µM)	relative viability (YM155 + Luminespib; first compound 0.02 µM)	relative viability (YM155 + Luminespib; first compound 0.06325 µM)	relative viability (Quizartinib + OSI-027; first compound 0.001 µM)	relative viability (Quizartinib + OSI-027; first compound 0.003162 µM)	relative viability (Quizartinib + OSI-027; first compound 0.01 µM)	relative viability (Quizartinib + OSI-027; first compound 0.03162 µM)	relative viability (Quizartinib + OSI-027; first compound 0.1 µM)	relative viability (Quizartinib + Linsitinib; first compound 0.001 µM)	relative viability (Quizartinib + Linsitinib; first compound 0.003162 µM)	relative viability (Quizartinib + Linsitinib; first compound 0.01 µM)	relative viability (Quizartinib + Linsitinib; first compound 0.03162 µM)	relative viability (Quizartinib + Linsitinib; first compound 0.1 µM)
LOU-NH91	0.693	0.679	0.723	0.682	0.862	0.299	0.36	0.315	0.375	0.673	0.749	0.712	0.742	0.767	0.899	0.954	0.996	0.825	1.11
LU99A	0.774	0.78	0.904	0.533	0.248	0.233	0.263	0.275	0.219	0.282	0.3	0.282	0.319	0.327	0.509	0.504	0.628	0.497	0.417
LXF-289	0.485	0.496	0.529	0.497	0.539	0.651	0.683	0.675	0.504	0.743	0.791	0.797	0.89	0.877	0.899	0.944	1.02	0.958	0.92
NCI-H23		0.724	0.771	0.727	0.841	0.209	0.206	0.187	0.142		0.561	0.465	0.507	0.401		0.577	0.615	0.555	0.661
NCI-H322M	0.541	0.827	0.837	0.547	0.744	0.814	0.949	0.944	0.759	0.54	0.568	0.556	0.517	0.57	0.798	1.01	1.02	0.917	0.92
NCI-H358	0.292	0.4	0.327	0.115	0.299	0.222	0.374	0.352	0.311	0.706	0.676	0.768	0.287	0.72	0.592	0.688	0.768		0.698
NCI-H441	0.831	0.807	0.787		0.958	0.327	0.394	0.259	0.301	0.424	0.669	0.564		0.693	0.357	0.645	0.607	0.51	0.479
NCI-H460	0.379	0.48	0.587	0.0822	0.028	0.0266	0.0307	0.035	0.0204	0.585	0.593	0.692	0.341	0.533	0.583	0.572	0.782		0.708
NCI-H520	0.582	0.526	0.532	0.357	0.35	0.238	0.266	0.215	0.233	0.245	0.231	0.292	0.233	0.272	0.862	0.992	0.888	0.934	0.859
NCI-H596	0.834	0.681	0.712	0.667	0.714	1.06	1.02	0.924	1.27	0.665	0.745	0.652	0.663	0.547	1.06	0.985	1.06	1.12	1.03
NCI-H647	0.463	0.591	0.569	0.453	0.514	0.151	0.148	0.162	0.106	0.627	0.654	0.689	0.596	0.648	1.17	1.07	1.26	1.18	1.45
NCI-H650	0.433	0.454	0.409	0.399	0.476	0.768	0.803	0.75	0.89	0.527	0.505	0.428	0.548	0.61	0.807	0.787	0.798	0.694	1.15
NCI-H661	0.274	0.289	0.3	0.224	0.194	0.841	0.948	0.927	0.393	0.66	0.594	0.692	0.693	0.721	0.564	0.544	0.433	0.58	0.737
NCI-H727		0.514	0.584	0.52	0.469	0.588	0.336	0.307	0.665	0.412	0.624	0.539	0.869	0.699	0.164		0.387	0.309	0.174
NCI-H838	0.442	0.692	0.498	0.607	0.329	0.254	0.429	0.234	0.158	0.346	0.4	0.299	0.38	0.375	0.919	0.912	0.991	0.963	0.576
NCI-H1355	0.426	0.434	0.437	0.426	0.415	0.633	0.724	0.733	0.683	0.361	0.449	0.389	0.377	0.4	0.804	0.817	0.827	0.799	0.842
NCI-H1395	0.437	0.447	0.46	0.468	0.494	0.934	0.81	0.798	0.971	0.697	0.749	0.645	0.586	0.691	1.06	1.37	0.985	1.04	1.22
